Tests used:
[1] = system: exotoxin A (ETA) production by P. aeruginosa; assay: virulence factor production: exotoxin A; assay type: cell-based, Pseudomonas aeruginosa; conditions: Compound I 1339 μM, MMS + 10 μM FeCl3, anaerobic, 24 h
[2] = system: P. aeruginosa strain PAO1; assay: MIC of tobramycin and colistin with and without Compound I; assay type: cell-based, Pseudomonas aeruginosa; conditions: Compound I 1339 μM, MMS + 10 μM FeCl3, aerobic and anaerobic atmospheres
Experimental: The minimal inhibitory concentrations (MICs) of the aminoglycosides gentamycin and tobramycin are determined under aerobic and anaerobic conditions in the presence of no added iron or 30 μM iron, with or without Compound I, e.g. and/or with varying concentrations of Compound I). MICs are determined in MMS+10 μM FeCl3 supplemented with Compound I (1339 μM) (solid line) and without Compound I (dashed line). Values shown represent the mean±SD of a representative experiment with each condition tested in duplicate. The […] inhibitory concentrations (MICS) of two antibiotics commonly used antibiotics to treat CF individuals, tobramycin and colistin, are tested against P. aeruginosa. This is done in MMS+10 μM FeCl3 with and without Compound I (1339 μM) under aerobic and anaerobic atmospheres (FIG. 4).

P. aeruginosa = assay: planktonic growth in borosilicate glass tube model (OD 570 nm); assay type: cell-based, Pseudomonas aeruginosa
Experimental: Growth with or without Compound I, e.g. at concentrations achieved in peripheral blood, under aerobic and anaerobic conditions with no added iron, 10, 30 and 50 μM iron. […] The effect of bacterial growth is determined using a standard method that involves inoculation of aliquots, e.g. 500 μL, of around 10^6 bacteria in minimal media with succinate into borosilicate glass tubes, e.g. 12×75 mm, that are them incubated under aerobic and anaerobic conditions, e.g. at 37° C. Each experiment is undertaken in triplicate and each borosilicate tube is removed at regular intervals, e.g. 0, 4, 8, 12, 16, 20 and 24 hours and the optical density at 570 nm of the culture used as an indicator of the level of growth. Anaerobic culture conditions are generated using the Anaerogen™ (Oxoid) system. For anaerobic experiments, parallel cultures are set up so that cultures are not transiently exposed to oxygen, i.e. seven parallel cultures to allow sampling at the required times. Different concentrations of Compound I are assessed for their effect on aerobic and anaerobic (A) growth and (B) biofilm levels. Medium used is MMS supplemented with 0 or 10 μM FeCl3, as indicated (37° C., 24 h). Values shown represent the mean±SD of one representative experiment with 3 tubes per experiment. Different concentrations of Compound I are assessed for their effect on aerobic and anaerobic (A) growth and (B) biofilm levels. Medium used is MMS supplemented with 10 μM FeCl3 (37° C., 24 h). […] The effects of Compound I on planktonic growth and biofilm development re assessed in the short-term borosilicate glass tube biofilm model. In this model, a biofilm is grown on a glass surface, and this is subsequently stained and solubilized. The optical density (OD: 570 nm) of the solution corresponds with the level of biofilm development. Using this model, bacterial growth and biofilm levels are determined after incubation (24 h, 37° C.) in minimal medium supplemented with succinate (MMS)+10 μM FeCl3 (aerobic and anaerobic atmospheres).

solubility in MMS medium = assay type: physicochemical; conditions: MMS medium (pH 7.0)
P. aeruginosa biofilm = assay: short-term borosilicate glass tube biofilm model (OD 570 nm); assay type: cell-based, Pseudomonas aeruginosa
Experimental: For this purpose, two short-term biofilm models relevant for the early stages of biofilm formation are used: borosilicate tubes and cover-slip method. In both models, the biofilm growth is studied with or without Compound I under either aerobic or anaerobic conditions and with or without added iron, i.e. 0, 10, 30 and 50 μM iron. The anti-biofilm effects of Compound I are looked at according to the standard methods, i.e. optical density, confocal imaging software, […] program, to allow analysis of biofilm structure in a 3 dimensional perspective. The imaging system and use of BacLight LIVE/DEAD staining (Molecular Probes) in the cover-slip experiments allow to look at the effects on both bacterial microcolonies and biofilm structure. Different concentrations of Compound I are assessed for their effect on aerobic and anaerobic (A) growth and (B) biofilm levels. Medium used is MMS supplemented with 0 or 10 μM FeCl3, as indicated (37° C., 24 h). Values shown represent the mean±SD of one representative experiment with 3 tubes per experiment. Different concentrations of Compound I are assessed for their effect on aerobic and anaerobic (A) growth and (B) biofilm levels. Medium used is MMS supplemented with 10 μM FeCl3 (37° C., 24 h). […] The effect of Compound I (1339 μM) on biofilm development in different iron concentrations, without Compound I (black columns) and with Compound I, 1339 μM (grey columns). […] The effects of Compound I on planktonic growth and biofilm development re assessed in the short-term borosilicate glass tube biofilm model. In this model, a biofilm is grown on a glass surface, and this is subsequently stained and solubilized. The optical density (OD: 570 nm) of the solution corresponds with the level of biofilm development. Using this model, bacterial growth and biofilm levels are determined after incubation (24 h, 37° C.) in minimal medium supplemented with succinate (MMS)+10 μM FeCl3 (aerobic and anaerobic atmospheres). […] It is investigated whether Compound I is impairing anaerobic biofilm development by directly reducing the level of iron in the medium, or whether it is acting by an iron-independent mechanism. Compound I at a concentration of 1339 μM is tested to see if it continued to impair anaerobic biofilm development as the concentration of iron is increased in the culture medium.

[3] = system: phospholipase C production by P. aeruginosa; assay: virulence factor production: phospholipase C; assay type: cell-based, Pseudomonas aeruginosa; conditions: Compound I 1339 μM, MMS + 10 μM FeCl3, anaerobic, 24 h
[4] = Compound I 0-100 μM, aerobic, MMS + 10 μM FeCl3, 24 h, 37° C.
[5] = Compound I 0-100 μM, anaerobic, MMS + 10 μM FeCl3, 24 h, 37° C.
[6] = higher concentration of Compound I (up to 6695 μM, via PEG 400), aerobic
[7] = higher concentration of Compound I (up to 6695 μM, via PEG 400), anaerobic, P<0.05

SMILES: O=C(O)c1ccc(-n2nc(-c3ccccc3O)nc2-c2ccccc2O)cc1 [Compound I, 4-[3,5-Bis-(2-hydroxyphenyl)-[1,2,4]-triazol-1-yl]benzoic acid]
- effect on iron-induced increase of exotoxin A (ETA) production [1]: increase is negated
- effect on MIC of colistin [2]: does not alter the MIC
- effect on MIC of tobramycin [2]: does not alter the MIC
- effect on aerobic growth (P. aeruginosa; [4]): does not impair
- effect on anaerobic growth (P. aeruginosa; [5]): does not impair
- effect on growth, higher concentration, aerobic (P. aeruginosa; [6]): not under aerobic conditions
- effect on growth, higher concentration, anaerobic (P. aeruginosa; [7]): significantly impair
- solubility in MMS medium (solubility in MMS medium): low solubility
- effect on aerobic biofilm development (P. aeruginosa biofilm; [4]): does not impair
- effect on anaerobic biofilm development (P. aeruginosa biofilm; [5]): does not impair
- impairment of anaerobic biofilm development as iron concentration is increased (P. aeruginosa biofilm; Compound I 1339 μM, anaerobic, increasing iron levels in culture medium): becomes less effective
- effect on biofilm levels, higher concentration, aerobic (P. aeruginosa biofilm; [6]): not under aerobic conditions
- effect on biofilm levels, higher concentration, anaerobic (P. aeruginosa biofilm; [7]): significantly impair
- effect on iron-induced increase of phospholipase C production [3]: increase is negated
